Data: patent US10428099B2, “Pharmaceutical co-crystal composition and use thereof” (SYN-NAT PRODUCTS ENTERPRISE LLC, priority 2015, dated 2019)
pIC50: −log10 of the molar value. Where two headings read alike, the source gives them in different places.

Tests used:
[1] = tested on: HL-7002 cells; assay: cells; conditions: Homo sapiens, Hepatocyte
[2] = tested on: HCT-116 cells; assay: MTS cell viability assay in colorectal cancer cell line HCT-116; type: cell-based; conditions: step-wise concentrations 0.01 to 300 μM, OD490, FIG. 5, read-out: IC50 for the reduction of HCT-116 cell number
Description: (§1) The index of cell growth repression ratio was obtained by comparing the OD490 data of treatment group to the negative control. The drug response rate IC50 was calculated with the SPSS 16.0 system.
(§2) The cells were cultured in RPMI+5% Fetal Bovine Serum (FBS).
(§3) The cells were monitored daily, and the cell viability was evaluated with the Promega CellTiter 96 AQueous One Solution Cell Proliferation Assay (Promega, Madison, Wis., USA) according to the manufacture manuals. The cell viability was monitored at OD490 reading in a bio-spectrometer (Perkin Elmer, Walthan, Mass., USA).
(§4) Data analysis: The OD490 reading data were collected hourly from 1 h to 4 h after the addition of lysis buffer. The index of cell growth repression ratio was obtained by comparing the OD490 data of treatment to the negative control. The drug response rate IC50 was calculated with the SPSS 16.0.

[3] = tested on: HT29 cells; assay: MTS cell viability assay in colorectal cancer cell line HT29; type: cell-based; conditions: step-wise concentrations 0.01 to 300 μM, OD490, FIG. 6
Description: HT29 cells are a colorectal cancer cell line. […] The index of cell growth repression ratio was obtained by comparing the OD490 data of treatment group to the negative control. The drug response rate IC50 was calculated with the SPSS 16.0 system.
as §2, §3, §4

[4] = tested on: HL-7002 cells; conditions: step-wise concentrations 0.01 to 300 μM, OD490, FIG. 3 and FIG. 7
[5] = tested on: HEK293 cells; conditions: step-wise concentrations 0.01 to 300 μM, OD490, FIG. 4 and FIG. 8
[6] = tested on: PC-3 cells; assay: MTS cell viability assay (CellTiter 96 AQueous One) in PC-3 prostate cancer cells; type: cell-based, human; conditions: step-wise concentrations 0.01 to 300 μM, OD490, FIG. 1
Description: as §1
(§5) Cell culture: Prostate cancer cell lines LNCaP and PC-3 were purchased from ATCC (Manassas, Va.). […] The cells were cultured in RPMI+5% Fetal Bovine Serum (FBS).
(§6) The cells treated with the solvents were used as the negative control, and cisplatin and docetaxel were used as the positive controls. The cells were monitored daily, and the cell viability was evaluated with the Promega CellTiter 96 AQueous One Solution Cell Proliferation Assay (Promega, Madison, Wis., USA) according to the manufacture manuals. The cell viability was monitored at OD490 reading in a bio-spectrometer (Perkin Elmer, Walthan, Mass., USA).
as §4

[7] = tested on: LNCaP cells; assay: MTS cell viability assay (CellTiter 96 AQueous One) in LNCaP prostate cancer cells; type: cell-based, human; conditions: step-wise concentrations 0.01 to 300 μM, OD490, FIG. 2
Description: as §1, §5, §6
Data analysis: The OD490 reading data were collected hourly from 1 h to 4 h after the addition of lysis buffer. The index of cell growth repression ratio was obtained by comparing the OD490 data of treatment to the negative control.

Compound | pIC50 [1] | pIC50 [2] | pIC50 [3] | pIC50 [4] | pIC50 [5] | pIC50 [6] | pIC50 [7]
CC(=O)O[C@@]12CO[C@@H]1C[C@H](O)[C@@]1(C)C(=O)[C@H](O)C3=C(C)[C@@H](OC(=O)[C@H](O)[C@@H](NC(=O)OC(C)(C)C)c4ccccc4)C[C@@](O)([C@@H](OC(=O)c4ccccc4)[C@H]21)C3(C)C [docetaxel] | 7.02 | – | – | – | – | – | –
O=C1[O][Pt]2([NH][C@@H]3CCCC[C@H]3[NH]2)[O]C1=O [oxaliplatin] | – | 5.09 | 4.52 | 5.61 | 4.99 | – | –
cisplatin | – | – | – | 5.70 | 5.16 | 5.60 | 5.65
